# Source: PubChem BioAssay AID2765 (Broad Institute, 2010)
# Calls of active or inactive are those of the source.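 How the source made its calls: active means half-maximal concentration for the rise in caspase light signal at or below ten times the top tested dose; inconclusive means flat fit between 30% and 70% activity, or unreliable curve fit; inactive means the rest.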
# Tested on: MEF A1-2A-BIM cells, caspase 3/7 luminescence, 3 h
# Assay: caspase activation in A1-2A-BIM MEF cells, dose response, A1 inhibitor project, cell-based, luminescence, retest (AID 2765)
row,SMILES,EC50
1,CC(C)CN(CC(C)C)C(=O)c1cc2c(=O)n3ccccc3nc2s1,> 35 µM (inactive)
2,CSc1ccc(S(=O)(=O)N2CCC(C(=O)NCCc3ccccc3)CC2)cc1,> 35 µM (inactive)
3,FC(F)(F)c1ccc(Cl)c(NC2=NCCCCC2)c1,> 35 µM (inactive)
4,Cc1ccc(-n2nc3c(=O)n(C(C)C(=O)NCc4ccccc4Cl)nc(C)c3c2C)cc1 (configuration not stated),> 35 µM (inactive)
5,Cc1cc(C)n(-c2nc(Nc3ccccc3C)nc(-n3nc(C)cc3C)n2)n1,> 35 µM (inactive)
6,O=C(CCCOc1ccc(Cl)cc1Cl)Nc1ncccn1,> 35 µM (inactive)
7,CCOC(=O)C[C@H]1c2ccccc2S(=O)(=O)N1Cc1cccc(C(F)(F)F)c1,> 35 µM (inactive)
8,CCc1noc(C)c1C(=O)N(CC)CC(=O)NCc1ccc(Cl)cc1,> 35 µM (inactive)
9,Cc1occc1-c1nnc(-c2cc([N+](=O)[O-])cc([N+](=O)[O-])c2)o1,> 35 µM (inactive)
10,Cc1ccc(-c2noc(CSc3nnc(CCc4ccccc4)n3-c3ccccc3)n2)cc1,> 35 µM (inactive)
11,O=C(CN1C(=O)c2ccccc2S1(=O)=O)N1CCN(Cc2ccc3c(c2)OCO3)CC1,> 35 µM (inactive)
12,CN(c1ccccc1C(=O)Nc1cccc(C(F)(F)F)c1)S(C)(=O)=O,> 35 µM (inactive)
13,COC(=O)c1ccc(CNC(=O)C2CCC(=O)N(CCc3ccccc3)C2)cc1 (configuration not stated),> 35 µM (inactive)
14,N#Cc1c(C(F)(F)F)cc(-c2ccccc2)nc1SCC(=O)Nc1sc2c(c1C#N)CCC2,> 35 µM (inactive)
15,CC/C(=C1/C(=O)CC(C)(C)C(C(=O)OC)C1=O)N1CCCC1 (configuration not stated),> 35 µM (inactive)
16,NS(=O)(=O)c1ccc(CCNC(=O)c2ccc3c(c2)OCCO3)cc1,> 35 µM (inactive)
17,Cc1onc(-c2c(Cl)cccc2Cl)c1C(=O)N=S(C)(=O)c1ccccc1 (configuration not stated),> 35 µM (inactive)
18,CN(CC(=O)Nc1ccc(F)cc1)C(=O)c1ccccc1OCc1ccc(F)cc1,> 35 µM (inactive)
19,COc1ccc(C(=O)COC(=O)CNS(=O)(=O)c2ccc(C)cc2)cc1,> 35 µM (inactive)
20,COc1ccc(C(=O)Sc2ccc(Cl)cc2)cc1OC,> 35 µM (inactive)
21,O=C1C(=O)N(Cc2ccco2)C(c2cccs2)/C1=C(\O)c1cccc([N+](=O)[O-])c1 (configuration not stated),> 35 µM (inactive)
22,COc1ccc2cc(C)c3nnc(SCC(=O)Nc4nc(-c5ccc(F)cc5)cs4)n3c2c1,9.65 µM
23,OC(Cn1cncn1)(Cn1cncn1)c1ccc(F)cc1F,> 35 µM (inactive)
24,Cc1[nH]c(=S)c(C#N)c(C)c1Cc1ccc(Cl)cc1Cl,> 35 µM (inactive)

row,SMILES,EC50
1,CCCCNC(=S)N/N=C/c1ccc(OCC(=O)Nc2c(C)cc(C)cc2C)c(OC)c1,> 35 µM (inactive)
2,CCNC(=O)CN(c1ccc(Br)c(C)c1)S(C)(=O)=O,> 35 µM (inactive)
3,CCC1(C(=O)c2ccc(Cl)cc2)C2c3ccccc3OC(=O)C21C(=O)Nc1ccccc1 (configuration not stated),> 35 µM (inactive)
4,O=C(Cn1[nH]c(=O)c2ccccc2c1=O)OCC(=O)N1CCc2ccccc2C1,> 35 µM (inactive)
5,CC(C)N(C(=O)CSc1ccc(S(=O)(=O)N2CCCCC2)cn1)C(C)C,> 35 µM (inactive)
6,CC(=O)Nc1ccc(S(=O)(=O)N2CCCC3CCCCC32)cc1 (configuration not stated),> 35 µM (inactive)
7,NS(=O)(=O)c1ccc(-c2ccc(/C=C3\C(=O)Nc4ccccc43)o2)cc1,> 35 µM (inactive)
8,O=Cc1cccc(OC(=O)c2ccc(Cl)cc2Cl)c1,> 35 µM (inactive)
9,COc1ccc2c(-c3cc4ccc(OCc5ccc(F)cc5)cc4oc3=O)cc(=O)oc2c1,30.1 µM
10,O=C1Nc2ncccc2OC1CCO (configuration not stated),> 35 µM (inactive)
11,O=C(Nc1ccccc1)N(Cc1ccc(Cl)cc1)CC(O)C(F)(F)F (configuration not stated),> 35 µM (inactive)
12,O=C(N/N=C/c1ccccc1O)C1CC(=O)N(c2ccc(F)cc2)C1 (configuration not stated),> 35 µM (inactive)
13,C=CCn1c(SCC(=O)NC23CC4CC(CC(C4)C2)C3)nc(O)cc1=O,> 35 µM (inactive)
14,Cc1cc(N2C(=O)C(O)=C(C(=O)c3cc4ccccc4o3)C2c2ccc(Br)cc2)no1 (configuration not stated),> 35 µM (inactive)
15,CCOC(=O)[C@@H]1[C@H]2COc3ccc(Br)cc3[C@H]2N2C(=O)N(c3ccc(Cl)cc3)C(=O)[C@@]12C,> 35 µM (inactive)
16,Cc1nc(NN)c2c3c(sc2n1)COC(C)(C)C3,> 35 µM (inactive)
17,COc1ccc(OC[C@@H](O)CNC(=O)c2cccc3c2C(=O)c2ccc(-c4ccc(F)cc4OCc4ccccc4)cc2S3(=O)=O)cc1,> 35 µM (inactive)
18,Cc1c(Cl)cccc1NC(=O)CN1CCN(CCN=CC2=C(O)CC(c3ccccc3)CC2=O)CC1 (configuration not stated),> 35 µM (inactive)
19,CC(C)CNC(=S)N(Cc1ccco1)Cc1cc2cc3c(cc2[nH]c1=O)OCCO3,> 35 µM (inactive)
20,CCn1c(Cl)c(C=O)s/c1=N\S(=O)(=O)c1ccccc1,> 35 µM (inactive)
21,CCCCNC(=O)c1ccc(Cn2c(=S)[nH]c3c([nH]c4ccc(OC)cc43)c2=O)cc1,5.24 µM
22,CN(C)CCCN(C(=O)c1cc2cc([N+](=O)[O-])ccc2s1)c1nc2cc3c(cc2s1)OCCO3,> 35 µM (inactive)
23,Cn1c(SCc2ccccc2)nc(N)c(N=O)c1=O,> 35 µM (inactive)
